Laboratory results published in US10696971B2, “MrgprX2/MrgprB2 expressing cell based assay to detect pseudo-allergic drug reactions and to identify blockers to prevent the adverse reactions” (The Johns Hopkins University, priority 2014, dated 2020).
“Also recorded” adds a separate entry of the source.

Experiments:
[1] = molecular target: T1, MrgprB2 (Mus musculus, UniProt Q3KNA1); test: Calcium imaging / EC50 determination in HEK293 cells expressing MrgprB2 (MrgprB2-HEK); format: cell-based; conditions: HEK293 cells heterologously expressing MrgprB2
T1 construct: expressed in transfected cells
T1 sequence (Q3KNA1 1-338): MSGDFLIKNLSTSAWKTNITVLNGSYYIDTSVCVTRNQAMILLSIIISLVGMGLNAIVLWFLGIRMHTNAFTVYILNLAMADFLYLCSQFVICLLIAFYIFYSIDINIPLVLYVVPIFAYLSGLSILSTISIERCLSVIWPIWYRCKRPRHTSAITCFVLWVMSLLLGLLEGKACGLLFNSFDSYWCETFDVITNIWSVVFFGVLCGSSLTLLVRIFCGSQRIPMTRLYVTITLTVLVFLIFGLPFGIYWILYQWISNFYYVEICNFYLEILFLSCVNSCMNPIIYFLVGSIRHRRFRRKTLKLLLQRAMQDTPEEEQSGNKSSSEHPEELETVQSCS
Procedure: In initial screens, HEK293 cells (not tested for Mycoplasma but rapidly dividing) were transiently transfected with gene constructs including a C-terminal FLAG tag, and plated on 100 μg/ml poly-D-lysine coated glass cover slips six hours after transfection. […] Later experiments utilized cell lines stably expressing receptors along with transient or stable expression of the promiscuous G protein Gα15. […] Unless otherwise specified, drugs were perfused into the chamber for 45 to 60 seconds and responses were monitored at 5-second intervals for an additional 60-90 seconds.
HEK293 cells stably expressing Galpha15 and either MrgprB2 or MrgprX2 were plated at 4×10^4 cells per well in 96-well plates and incubated overnight. […] Cells were incubated at 37° C. for 60 minutes, and allowed to recover for 15 minutes at room temperature before imaging in a Flexstation 3 (Molecular Devices). Wells were imaged according to manufacturer's specifications for 120 seconds, with 50 μl of test substances at 3× concentration added 30 seconds after imaging began. Responses were determined by subtracting the minimum signal from the maximum signal. Substances were tested in duplicate wells, the signals were averaged, and EC50s were determined for each trial by normalizing to the peak response to the substance in that trial.

[2] = system: mouse peritoneal mast cells; test: Peritoneal mast cell Fluo-4 calcium imaging, WT vs MrgprB2^MUT; format: cell-based; conditions: for activation / responsiveness of peritoneal mast cells, WT vs MrgprB2^MUT: Fluo-4 imaging, concentrations per FIG. 2A, 2E, 3A, 4C, 4E, 11 legends
Procedure: Adult male and female mice 2-5 months of age were sacrificed through CO2 inhalation. A total of 12 mls of ice cold mast cell dissociation media (MCDM; HBSS with 3% fetal bovine serum and 10 mM HEPES, pH 7.2) were used to make two sequential peritoneal lavages, which were combined and cells were spun down at 200 g. The pellet from each mouse was resuspended in 2 mls MCDM, layered over 4 mls of an isotonic 70% Percoll suspension (2.8 mls Percoll, 320 μls 10×HBSS, 40 μl 1 M HEPES, 830 μl MCDM), and spun down for 20 minutes, 500 g, 4° C. Mast cells were recovered in the pellet. Purity was >95%, as assayed by avidin staining and by morphology. Mast cells were resuspended at 5×10^5-1×10^6 cells/ml in DMEM with 10% fetal bovine serum and 25 ng/ml recombinant mouse stem cell factor (Sigma), and plated onto glass cover slips coated with 30 μg/ml fibronectin (Sigma). For counting, instead of plating, suspended mast cells were diluted 1/10 and affixed to slides by spinning at 1000 rpm for 5 minutes at 4° C. on a CytoSpin (Thermo Scientific).
For imaging, after two hours of incubation at 37° C., 5% CO2, mast cells were loaded with Fluo-4 along with 0.02% Pluronic F-127 for 30 minutes at room temperature, washed 3 times in CIB and used immediately for imaging. Cells were used within two hours of loading. Cells were identified as responding if the [Ca^2+]i rose by at least 50% for at least 10 seconds, which clearly distinguishes a ligand-induced response from random flickering events. Average traces were calculated by taking the average response from each cell in a mouse, and averaging those.

[3] = Drug preparation and storage observations; format: physicochemical
Procedure: Propranolol also was prepared fresh on the day of the experiment to minimize the chances of a loss in potency. All fluoroquinolones except levofloxacin were dissolved into CIB adjusted to pH 3.5. All other drugs were prepared as 100×-1000× aliquots and stored at −80° C. before thawing at 4° C. and diluting into calcium imaging buffer or saline.

[4] = system: peritoneal mast cells; test: Mouse peritoneal mast cell histamine release assay; format: cell-based; conditions: WT vs MrgprB2^MUT peritoneal mast cells
Procedure: Mast cells were purified as with the calcium imaging assay and allowed to recover for 2 hours in DMEM with 10% FBS and 25 ng/ml mouse stem cell factor in a 37° C. incubator with 5% CO2. Cells were then spun down, resuspended in CIB, counted, and plated at 300 cells/well in 75 μl CIB in 96-well plates coated with 20 μg/ml fibronectin (Sigma). They were allowed to adhere to the substrate for 45 minutes at 37° C. in atmospheric conditions (i.e. CO2 levels were not adjusted) before assay. […] After 5 minutes, 40 μl of supernatant was aspirated, diluted with 40 μl CIB and frozen at −80° C. until histamine levels were determined. Anti-IgE treatment was similar, except that cells were incubated for 30 minutes at 37° C. after anti-IgE was added before aspiration of supernatant. Histamine content was determined by using an HTRF histamine assay kit (Cisbio Assays) according to the manufacturer's instructions.

[5] = system: LAD2 human mast cells; test: LAD2 degranulation assay (β-hexosaminidase release), with MrgprX2 siRNA knockdown; format: cell-based; conditions: for β-hexosaminidase release in MrgprX2 siRNA vs control siRNA cells: compound 48/80 0.1, mastoparan 5, icatibant 10, atracurium 25, ciprofloxacin 75 μg/ml
Procedure: LAD2 cells were sensitized for 20 hours with 0.5 μg/ml biotin-conjugated human IgE (Abbiotec). Cells were washed, resuspended in Hepes buffer (10 mM HEPES, 137 mM NaCl, 2.7 mM KCl, 0.38 mM Na2HPO4.7H2O, 5.6 mM glucose, 1.8 mM CaCl2.H2O, 1.3 mM MgSO4.7H2O, 0.4% BSA, pH 7.4) at 0.025×10^6 per well, and then stimulated with 0.1 μg/ml streptavidin (Life Technologies) or other agonists at the indicated concentrations for 30 minutes at 37° C./5% CO2. The β-hexosaminidase released into the supernatants and in cell lysates was quantified by hydrolysis of p-nitrophenyl N-acetyl-β-D-glucosamide (Sigma-Aldrich) in 0.1 M sodium citrate buffer (pH 4.5) for 90 minutes at 37° C. The percentage of β-hexosaminidase release was calculated as a percent of total content.
LAD2 cells were washed with medium, suspended at 0.5×10^6 cells per well, and transfected with 100 nm MrgprX2 siRNA and control siRNA in antibiotic-free StemPro medium using Lipofectamine 3000 (Life Technologies) according to the manufacturer's instruction at 37° C./5% CO2. At 48 hours, knockdown was confirmed by reverse-transcriptase PCR, and the cells were used for degranulation assays.

[6] = system: WT and MrgprB2^MUT mice; test: Hindpaw swelling and Evans Blue extravasation; format: in vivo, mouse; conditions: icatibant intraplantar after ketotifen i.p. pretreatment (25 μl of 10 mg/ml), n=4
Procedure: Adult male mice up to 8 months of age were anesthetized with an i.p. injection of 50 mg/kg pentobarbital (Sigma). 15 minutes after induction of anesthesia, mice were injected i.v. with 50 μl of 12.5 mg/ml Evans Blue (Sigma) in saline. 5 minutes later, 5 μl of the test substance (or 7 μl of anti-IgE) was administered by intraplantar injection in one paw and saline was administered in the other paw. Paw thickness was measured by calipers immediately after injection. 15 minutes later (30 minutes after anti-IgE), paw thickness was measured again and mice were sacrificed by decapitation. Paw tissue was collected, dried for 24 hours at 50° C., and weighed. Evans Blue was extracted by a 24 hour incubation in formamide at 50° C., and the O.D. was read at 620 nm using a spectrophotometer. For studies using ketotifen, mice were injected i.p. with 25 μl of a 10 mg/ml solution of ketotifen at the same time as pentobarbital.

Molecule: CC(C)C[C@H](NC(=O)[C@H](C)NC(=O)[C@H](Cc1c[nH]c2ccccc12)NC(=O)[C@H](CCCCN)NC(=O)[C@H](CC(N)=O)NC(=O)[C@H](Cc1c[nH]c2ccccc12)NC(=O)[C@H](CCCCN)NC(=O)[C@H](CCCCN)NC(=O)[C@H](CCCNC(=N)N)NC(=O)[C@@H](N)Cc1ccccc1)C(=O)N[C@@H](CO)C(=O)N[C@@H](CCCNC(=N)N)C(N)=O [PAMP (9-20)]
- response of MrgprB2-HEK cells ([Ca2+]i) [1]: responded
- activation / responsiveness of peritoneal mast cells, WT vs MrgprB2^MUT [2]: strongly activated WT but not MrgprB2^MUT mast cells

Molecule: CSCC[C@H](NC(=O)[C@H](CC(C)C)NC(=O)CNC(=O)[C@H](Cc1ccccc1)NC(=O)[C@H](Cc1ccccc1)NC(=O)[C@H](CCC(N)=O)NC(=O)[C@H](CCC(N)=O)NC(=O)[C@@H]1CCCN1C(=O)[C@H](CCCCN)NC(=O)[C@@H]1CCCN1C(=O)[C@@H](N)CCCNC(=N)N)C(N)=O [Substance P]
- response of MrgprB2-HEK cells ([Ca2+]i) [1]: responded

Molecule: COc1ccc(CC2c3cc(OC)c(OC)cc3CC[N+]2(C)CCC(=O)OCCCCCOC(=O)CC[N+]2(C)CCc3cc(OC)c(OC)cc3C2Cc2ccc(OC)c(OC)c2)cc1OC (stereo not drawn) [atracurium]
- stability of potency of solutions [3]: susceptible to oxidation and/or freeze-thaw effects
- histamine release from WT peritoneal mast cells (MrgprB2^MUT released substantially less) [4]: induced histamine release
- β-hexosaminidase release in MrgprX2 siRNA vs control siRNA cells [5]: significantly reduced

Molecule: CCN(CC)CCCC(C)Nc1ccnc2cc(Cl)ccc12 (stereo not drawn) [chloroquine]
- response of MrgprB2-HEK cells ([Ca2+]i) [1]: no response

Molecule: CC[C@H](C)[C@H](NC(=O)[C@H](CC(=O)O)NC(=O)[C@H](CC(C)C)NC(=O)[C@H](Cc1c[nH]cn1)NC(=O)[C@@H]1CSSC[C@H](N)C(=O)N[C@@H](CO)C(=O)N[C@H]2CSSC[C@H](NC(=O)[C@H](CCC(=O)O)NC(=O)[C@H](CCCCN)NC(=O)[C@H](CC(=O)O)NC(=O)[C@H](CCSC)NC(=O)[C@H](CC(C)C)NC(=O)[C@H](CO)NC(=O)[C@H](CO)NC2=O)C(=O)N[C@@H](C(C)C)C(=O)N[C@@H](Cc2ccc(O)cc2)C(=O)N[C@@H](Cc2ccccc2)C(=O)N1)C(=O)N[C@H](C(=O)N[C@@H](Cc1c[nH]c2ccccc12)C(=O)O)[C@@H](C)CC [endothelin]
- activation / responsiveness of peritoneal mast cells, WT vs MrgprB2^MUT [2]: comparable
- activation / responsiveness of peritoneal mast cells, WT vs MrgprB2^MUT ([2]; listed as Endothelin): not significantly different

Molecule: CN1CCC(=C2c3ccccc3CC(=O)c3sccc32)CC1 [ketotifen]
- increase in paw thickness, with ketotifen [6]: 3.1±0.6%

Molecule: CC[C@H](C)[C@H](N)C(=O)N[C@@H](CC(N)=O)C(=O)N[C@@H](CC(C)C)C(=O)N[C@@H](CCCCN)C(=O)N[C@@H](C)C(=O)N[C@@H](CC(C)C)C(=O)N[C@@H](C)C(=O)N[C@@H](C)C(=O)N[C@@H](CC(C)C)C(=O)N[C@@H](C)C(=O)N[C@@H](CCCCN)C(=O)N[C@@H](CCCCN)C(=O)N[C@H](C(=O)N[C@@H](CC(C)C)C(N)=O)[C@@H](C)CC [mastoparan]
- histamine release from WT peritoneal mast cells (MrgprB2^MUT released substantially less) [4]: induced histamine release
- β-hexosaminidase release in MrgprX2 siRNA vs control siRNA cells [5]: significantly reduced

Molecule: COc1cc2c(cc1OC)[C@@H](Cc1cc(OC)c(OC)c(OC)c1)[N+](C)(CCCOC(=O)CC/C=C/CCC(=O)OCCC[N+]1(C)CCc3cc(OC)c(OC)cc3[C@H]1Cc1cc(OC)c(OC)c(OC)c1)CC2 (stereo partly drawn) [mivacurium]
- stability of potency of solutions [3]: susceptible to oxidation and/or freeze-thaw effects

Molecule: COc1cc2c3cc1Oc1cc(ccc1O)C[C@@H]1c4c(cc(OC)c(O)c4Oc4ccc(cc4)C[C@@H]3N(C)CC2)CC[N+]1(C)C [tubocurarine]
- stability of potency of solutions [3]: susceptible to oxidation and/or freeze-thaw effects

Molecule: BAMS-22: MrgprX1 and MrgprC11 agonist Bovine Adrenal Medulla derived peptide, fragment 8-22 (VGRPEWWMDYQKRYG)
- percentages of peritoneal mast cells responding, differences ([2]; 500 nM, Fluo-4, p=0.39): not significant

Molecule: cortistatin
- activation / responsiveness of peritoneal mast cells, WT vs MrgprB2^MUT [2]: strongly activated WT but not MrgprB2^MUT mast cells

Molecule: insulin: Recombinant human insulin from Roche, negative control
- activation / responsiveness of peritoneal mast cells, WT vs MrgprB2^MUT [2]: had no effect; also recorded: not significant

Molecule: streptavidin: stimulus for biotin-conjugated human IgE sensitized LAD2 cells
- β-hexosaminidase release ([5]; 0.1 μg/ml streptavidin, biotin-conjugated human IgE sensitized LAD2 cells): 71.3±1.8 % release
